Holding throughout (type): in vivo
In experiment [1] the test system is Two-Spotted Spider Mite (Tetranychus urticae). Kind of experiment: Two-spotted spider mite (Tetranychus urticae) spray test on kidney bean. Particulars: after 7 days. A digest of the protocol: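 Kidney bean plants at the two-leaf stage carried 50-100 adult mites and were sprayed one day later with compound in DMF/polyoxyethylene alkyl phenyl ether diluted in water. Ammonium salt and penetration enhancer at 1000 ppm were added if needed. Acaricidal activity (% mites killed) was scored after 7 days in a greenhouse.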

Experiment [2] concerns Cucurbit Leaf Beetle (Aulacophora femoralis). Nature of the experiment: Cucurbit leaf beetle (Aulacophora femoralis) cucumber leaf dip test. Particulars: after 7 days. In short, it runs like this: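 Cucumber leaves dipped in compound formulated with DMF and polyoxyethylene alkyl phenyl ether, diluted in water, with ammonium salt or ammonium salt plus penetration enhancer at 1000 ppm added if necessary; dried leaves placed on sterilized soil with five second-instar larvae. Kept at 25° C; larval mortality counted after 7 days.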

The subject of the next experiment is Thrips palmi. Kind of experiment: Thrips palmi spray test (THRIPL). Particulars: active compound concentration 20 ppm; after 6 days. As for the experimental part: Unless not mentioned otherwise, the test solutions were prepared as follows:
Solvent: 3 parts by weight Dimethylformamide
Emulsifier: 1 part by weight Polyoxyethylene alkyl phenyl ether
In order to make an appropriate formulation of an active compound, 1 part by weight of the active compound is mixed with the above mentioned amount of solvent and emulsifier and the mixture is diluted with water to a prescribed concentration. Ammonium salt or ammonium salt and penetration enhancer in a dosage of 1000 ppm are added to the desired concentration if necessary.
The compound solutions are sprayed to a cucumber seedling (Cucumis sativus). After drying, the treated plant is placed in a plastic stand. About 100 thrips-eggs (Thrips palmi) on a piece of filter paper are attached to the plant and covered with a cage to keep 100% humidity. The plant is kept in a room at 23° C. After 6 days activity in % is evaluated by feeding damage degree. An insecticidal activity of 100 means that there was no feeding damage, whereas an insecticidal activity of 0% means that there is no difference to the untreated control.

For experiment [3], the system named is Larvae of Spodoptera litura. Nature of the experiment: Larvae of Spodoptera litura, method using artificial feeds. Particulars: artificial feed, after 7 days. A digest of the protocol:
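Compound formulated in dimethylformamide with polyoxyethylene alkyl phenyl ether emulsifier, water-diluted and poured onto artificial diet. Five 3rd-instar Spodoptera litura larvae per cup, held at 25° C and 50-60% humidity. Mortality after 7 days expressed as pesticidal ratio.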

Setting [4] is: active compound concentration 4 ppm.
The mark [5] stands for this setting: active compound concentration 20 ppm.

As for `CC(=O)NCc1ccc(N2CCC(c3cc(C(F)(F)F)cc(C(F)(F)F)c3)(C(F)(F)F)C2O)cc1C(F)(F)F` (mixture of isomers) [A1-56], the acaricidal activity in experiment [1] (setting [4]) is recorded as 100%. Besides, the insecticidal activity in experiment [2] (setting [4]) was 100%. In the experiment on Thrips palmi, the “insecticidal activity (by feeding damage degree)” value is given as 98%. The “insecticidal activity (pesticidal ratio)” value in experiment [3] (setting [4]) came out at 100%.
`O=C(NCc1ccc(N2CCC(c3cc(C(F)(F)F)cc(C(F)(F)F)c3)(C(F)(F)F)C2O)cc1C(F)(F)F)C1CC1` (mixture of isomers) [A1-60]: the acaricidal activity in experiment [1] (setting [5]) was found to be 100%. The insecticidal activity in experiment [2] (setting [4]) came out at 100%. Besides, the “insecticidal activity (by feeding damage degree)” value with Thrips palmi was determined as 98%. For the same compound, the “insecticidal activity (pesticidal ratio)” value in experiment [3] (setting [4]) came out at 100%.
Regarding `CC(=O)NCc1ccc(N2CCC(c3cc(Cl)cc(C(F)(F)F)c3)(C(F)(F)F)C2O)nc1C(F)(F)F` (mixture of isomers) [A3-265], the acaricidal activity in experiment [1] (setting [5]) stood at 100%. Further, the insecticidal activity in experiment [2] (setting [4]) and in experiment [2] (setting [5]) was 100% in each case. Also, the “insecticidal activity (by feeding damage degree)” value in the experiment on Thrips palmi stood at 90%. For the same compound, the “insecticidal activity (pesticidal ratio)” value in experiment [3] (setting [4]) and in experiment [3] (setting [5]) was 100% throughout.
Regarding `O=C(CC1CC1)NCc1ccc(N2CCC(c3cc(Cl)cc(C(F)(F)F)c3)(C(F)(F)F)C2O)nc1C(F)(F)F` (mixture of isomers) [A3-270], the acaricidal activity in experiment [1] (setting [4]) and in experiment [1] (setting [5]) was 100% in each case. In addition, the insecticidal activity in experiment [2] (setting [4]) and in experiment [2] (setting [5]) was 100% throughout. Moreover, the “insecticidal activity (by feeding damage degree)” value in the experiment on Thrips palmi was 90%. Moreover, the “insecticidal activity (pesticidal ratio)” value in experiment [3] (setting [4]) and in experiment [3] (setting [5]) was 100% in each case.
In the case of `CS(=O)(=O)CC(=O)NCc1ccc(N2CCC(c3cccc(C(F)(F)F)c3)(C(F)(F)F)C2O)nc1C(F)(F)F` (racemic) [A3-231], the acaricidal activity in experiment [1] (setting [4]) and in experiment [1] (setting [5]) was 100% in each case. For the same compound, the insecticidal activity in experiment [2] (setting [4]) and in experiment [2] (setting [5]) was 100% throughout. Moreover, the “insecticidal activity (by feeding damage degree)” value with Thrips palmi is on record as 90%. In addition, in experiment [3] (setting [4]), the “insecticidal activity (pesticidal ratio)” value was found to be 80%.
As to `CC(=O)NCc1ccc(N2CCC(c3cc(C(F)(F)F)cc(C(F)(F)F)c3)(C(F)(F)F)C2O)cc1Br` (centres unmarked) [A1-216], the acaricidal activity in experiment [1] (setting [4]) is given as 90%. In experiment [2] (setting [4]), this compound registered an insecticidal activity of 100%. The “insecticidal activity (by feeding damage degree)” value in the experiment with Thrips palmi turned out to be 90%. Also, the “insecticidal activity (pesticidal ratio)” value in experiment [3] (setting [4]) turned out to be 100%.
For `CCC(=O)NCc1ccc(N2CCC(c3cc(C(F)(F)F)cc(C(F)(F)F)c3)(C(F)(F)F)C2O)cc1Br` (centres unmarked) [A1-217], the acaricidal activity in experiment [1] (setting [4]) was 100%. Besides, the insecticidal activity in experiment [2] (setting [4]) came out at 100%. For the same compound, in the experiment with Thrips palmi, the “insecticidal activity (by feeding damage degree)” value worked out at 90%. Also, in experiment [3] (setting [4]), the “insecticidal activity (pesticidal ratio)” value came out at 100%.
Regarding `O=C(NCc1ccc(N2CCC(c3cc(C(F)(F)F)cc(C(F)(F)F)c3)(C(F)(F)F)C2O)cc1Br)C1CC1` (centres unmarked) [A1-220], in experiment [1] (setting [4]), the acaricidal activity was found to be 100%. In experiment [2] (setting [4]), this compound gave an insecticidal activity of 100%. In addition, the “insecticidal activity (by feeding damage degree)” value in the experiment on Thrips palmi worked out at 90%. Also, the “insecticidal activity (pesticidal ratio)” value in experiment [3] (setting [4]) was 100%.
Consider `CCC(=O)NCc1ccc(N2CCC(c3cc(Br)cc(Br)c3)(C(F)(F)F)C2O)cc1C(F)(F)F` (centres unmarked) [A1-250], for which the acaricidal activity in experiment [1] (setting [4]) and in experiment [1] (setting [5]) was 100% each time. The insecticidal activity in experiment [2] (setting [4]) and in experiment [2] (setting [5]) was 100% each time. Further, in the experiment with Thrips palmi, the “insecticidal activity (by feeding damage degree)” value was 90%. In addition, the “insecticidal activity (pesticidal ratio)” value in experiment [3] (setting [4]) and in experiment [3] (setting [5]) was 100% throughout.
With `CCC(=O)NCc1ccc(N2CCC(c3cc(F)cc(C(F)(F)F)c3)(C(F)(F)F)C2O)cc1C(F)(F)F` (centres unmarked) [A1-316], the acaricidal activity in experiment [1] (setting [4]) and in experiment [1] (setting [5]) was 100% throughout. The insecticidal activity in experiment [2] (setting [4]) and in experiment [2] (setting [5]) was 100% throughout. In addition, in the experiment with Thrips palmi, the “insecticidal activity (by feeding damage degree)” value is listed as 90%. Moreover, the “insecticidal activity (pesticidal ratio)” value in experiment [3] (setting [4]) and in experiment [3] (setting [5]) was 100% in each case.
As for `O=C(NCc1ccc(N2CCC(c3cc(F)cc(C(F)(F)F)c3)(C(F)(F)F)C2O)cc1C(F)(F)F)C1CC1` (centres unmarked) [A1-319], the acaricidal activity in experiment [1] (setting [4]) and in experiment [1] (setting [5]) was 100% each time. The insecticidal activity in experiment [2] (setting [4]) and in experiment [2] (setting [5]) was 100% in each case. Further, the “insecticidal activity (by feeding damage degree)” value in the experiment on Thrips palmi came to 90%. Also, the “insecticidal activity (pesticidal ratio)” value in experiment [3] (setting [4]) and in experiment [3] (setting [5]) was 100% throughout.
In the case of `O=C(NCc1ccc(N2CCC(c3cc(Cl)c(F)c(Cl)c3F)(C(F)(F)F)C2O)cc1Br)C1CC1` (centres unmarked) [A1-433], in experiment [1] (setting [4]), the acaricidal activity is recorded as 100%. Further, in experiment [2] (setting [4]), the insecticidal activity was determined as 100%. Moreover, in the experiment with Thrips palmi, the “insecticidal activity (by feeding damage degree)” value is 90%. Besides, the “insecticidal activity (pesticidal ratio)” value in experiment [3] (setting [4]) is listed as 100%.
As to `O=C(CC1CC1)NCc1ccc(N2CCC(c3cc(Cl)cc(Cl)c3)(C(F)(F)F)C2O)nc1C(F)(F)F` (centres unmarked) [A3-6], the acaricidal activity in experiment [1] (setting [4]) and in experiment [1] (setting [5]) was 100% each time. In addition, the insecticidal activity in experiment [2] (setting [4]) and in experiment [2] (setting [5]) was 100% throughout. Besides, the “insecticidal activity (by feeding damage degree)” value in the experiment with Thrips palmi was determined as 90%. For the same compound, the “insecticidal activity (pesticidal ratio)” value in experiment [3] (setting [4]) and in experiment [3] (setting [5]) was 100% each time.
Regarding `CS(=O)(=O)CC(=O)NCc1ccc(N2CCC(c3cc(Cl)cc(Cl)c3)(C(F)(F)F)C2O)nc1C(F)(F)F` (centres unmarked) [A3-11], the acaricidal activity in experiment [1] (setting [4]) and in experiment [1] (setting [5]) was 100% throughout. The insecticidal activity in experiment [2] (setting [4]) and in experiment [2] (setting [5]) was 100% throughout. For the same compound, the “insecticidal activity (by feeding damage degree)” value with Thrips palmi turned out to be 98%. Also, the “insecticidal activity (pesticidal ratio)” value in experiment [3] (setting [4]) and in experiment [3] (setting [5]) was 100% throughout.
As to `CC(C)C(=O)NCc1ccc(N2CCC(c3cc(Cl)c(Cl)c(Cl)c3)(C(F)(F)F)C2O)nc1C(F)(F)F` (centres unmarked) [A3-15], the acaricidal activity in experiment [1] (setting [4]) and in experiment [1] (setting [5]) was 100% throughout. The “insecticidal activity (by feeding damage degree)” value with Thrips palmi was 90%. Besides, the “insecticidal activity (pesticidal ratio)” value in experiment [3] (setting [4]) and in experiment [3] (setting [5]) was 100% each time.
Consider `O=C(CC1CC1)NCc1ccc(N2CCC(c3cc(Cl)c(Cl)c(Cl)c3)(C(F)(F)F)C2O)nc1C(F)(F)F` (centres unmarked) [A3-17], for which the acaricidal activity in experiment [1] (setting [4]) and in experiment [1] (setting [5]) was 100% each time. The “insecticidal activity (by feeding damage degree)” value with Thrips palmi was 90%. In addition, the “insecticidal activity (pesticidal ratio)” value in experiment [3] (setting [4]) and in experiment [3] (setting [5]) was 100% each time.
In the case of `O=C(CC(F)(F)F)NCc1ccc(N2CCC(c3cc(Cl)c(Cl)c(Cl)c3)(C(F)(F)F)C2O)nc1C(F)(F)F` (centres unmarked) [A3-18], the acaricidal activity in experiment [1] (setting [4]) and in experiment [1] (setting [5]) was 100% each time. The insecticidal activity in experiment [2] (setting [4]) and in experiment [2] (setting [5]) was 100% throughout. Besides, in the experiment with Thrips palmi, the “insecticidal activity (by feeding damage degree)” value came to 98%. In addition, the “insecticidal activity (pesticidal ratio)” value in experiment [3] (setting [4]) and in experiment [3] (setting [5]) was 100% each time.

The values are drawn from patent US9375000B2, “Pesticidal arylpyrrolidines” (Bayer Intellectual Property GmbH, priority 2011, dated 2016).
